Laboratory results: the supplement of paper PMC8671470

Legend:
Conditions in all cases: 72 h
BV-173 [1] = experiment: cell viability (% survival relative to DMSO control, bortezomib = 0%); higher = less cytotoxic
Summary of the method: (§1)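 Percent survival is reported as the mean of duplicate wells. Cells from 10 AML and 5 CML lines were plated in 384-well plates containing compounds at 1, 10, 100, 1000 or 10000 nM and kept for 72 h at 37 °C in 5% CO2. Readout used CellTiter-Glo luminescence, scaled so that vehicle equals 100% and a 10 µM positive control equals 0%.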

LAMA-84 [2] = experiment: as above
Summary of the method: as §1

MV4-11 [3] = experiment: as above
Summary of the method: as §1

Mono-Mac-6 [4] = experiment: as above
Summary of the method: as §1

ML-2 [5] = experiment: as above
Summary of the method: as §1

KCL-22 [6] = experiment: as above
Summary of the method: as §1

NOMO-1 [7] = experiment: as above
Summary of the method: as §1

KU-812 [8] = experiment: as above
Summary of the method: as §1

THP-1 [9] = experiment: as above
Summary of the method: as §1

K-562 [10] = experiment: as above
Summary of the method: as §1

MOLM-13 [11] = experiment: as above
Summary of the method: as §1

KG-1 [12] = experiment: as above
Summary of the method: as §1

HEL [13] = experiment: as above
Summary of the method: as §1

HL-60 [14] = experiment: as above
Summary of the method: as §1

SHI-1 [15] = experiment: as above
Summary of the method: as §1

BV-173 [16] = tested on: BV-173
Summary of the method: (§2)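 Fifteen myeloid leukaemia cell lines were seeded in RPMI 1640 at densities titrated to the linear growth range and placed in 384-well plates with acoustically pre-printed compounds at five tenfold doses from 1 to 10,000 nM, in duplicate. After 72 h at 37 °C with 5% CO2, luminescent ATP viability was normalised to vehicle and to a positive control at 10 µM, and curves were fitted with a four-parameter log-logistic model. The IC50 was obtained from these fits.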

LAMA-84 [17] = tested on: LAMA-84
Summary of the method: as §2

MV4-11 [18] = tested on: MV4-11
Summary of the method: as §2

Mono-Mac-6 [19] = tested on: Mono-Mac-6
Summary of the method: as §2

ML-2 [20] = tested on: ML-2
Summary of the method: as §2

KCL-22 [21] = tested on: KCL-22
Summary of the method: as §2

NOMO-1 [22] = tested on: NOMO-1
Summary of the method: as §2

KU-812 [23] = tested on: KU-812
Summary of the method: as §2

THP-1 [24] = tested on: THP-1
Summary of the method: as §2

K-562 [25] = tested on: K-562
Summary of the method: as §2

MOLM-13 [26] = tested on: MOLM-13
Summary of the method: as §2

KG-1 [27] = tested on: KG-1
Summary of the method: as §2

HEL [28] = tested on: HEL
Summary of the method: as §2

HL-60 [29] = tested on: HL-60
Summary of the method: as §2

SHI-1 [30] = tested on: SHI-1
Summary of the method: as §2

O=[As]O[As]=O (stereo not given) [Arsenic trioxide]
cell viability [%]
Conditions	1 nM	10 nM	100 nM	1000 nM	10000 nM
BV-173 [1]	96.1	97.2	105	95.5	28.4
HEL [13]	98.8	102	120	96.8	74.9
HL-60 [14]	108	105	109	96.9	55.6
K-562 [10]	91.1	93.8	105	102	49.5
KCL-22 [6]	107	107	102	99	74.4
KG-1 [12]	103	106	108	97	86.4
KU-812 [8]	98.5	105	112	93.4	61.5
LAMA-84 [2]	104	100	109	90.2	53.2
ML-2 [5]	109	96.4	103	94.9	76.2
MOLM-13 [11]	110	104	124	102	18.5
MV4-11 [3]	97	108	104	95.1	20.4
Mono-Mac-6 [4]	98.2	104	109	102	43.2
NOMO-1 [7]	98	96	110	100	71.4
SHI-1 [15]	105	97.1	112	94.7	57.6
THP-1 [9]	93.9	96.1	106	92.4	82.2

Conditions	IC50 (cell viability) [µM]
BV-173 [16]	4.7
HEL [28]	> 10
HL-60 [29]	8.69
K-562 [25]	> 10
KCL-22 [21]	> 10
KG-1 [27]	> 10
KU-812 [23]	> 10
LAMA-84 [17]	7.24
ML-2 [20]	> 10
MOLM-13 [26]	4.97
MV4-11 [18]	4.27
Mono-Mac-6 [19]	8.74
NOMO-1 [22]	> 10
SHI-1 [30]	9.09
THP-1 [24]	> 10
